{"source": "patent US10316028B2", "about": "“Orexin receptor antagonists” (Heptares Therapeutics Limited, priority 2012, dated 2019)"}
{"target": "T1, human Orexin-2 receptor (Homo sapiens, UniProt O43614)", "T1 construct": "expressed in transfected cells; host or cells: HEK293 cells (transient transfection, Genejuice); membranes", "T1 sequence (O43614 1-444)": "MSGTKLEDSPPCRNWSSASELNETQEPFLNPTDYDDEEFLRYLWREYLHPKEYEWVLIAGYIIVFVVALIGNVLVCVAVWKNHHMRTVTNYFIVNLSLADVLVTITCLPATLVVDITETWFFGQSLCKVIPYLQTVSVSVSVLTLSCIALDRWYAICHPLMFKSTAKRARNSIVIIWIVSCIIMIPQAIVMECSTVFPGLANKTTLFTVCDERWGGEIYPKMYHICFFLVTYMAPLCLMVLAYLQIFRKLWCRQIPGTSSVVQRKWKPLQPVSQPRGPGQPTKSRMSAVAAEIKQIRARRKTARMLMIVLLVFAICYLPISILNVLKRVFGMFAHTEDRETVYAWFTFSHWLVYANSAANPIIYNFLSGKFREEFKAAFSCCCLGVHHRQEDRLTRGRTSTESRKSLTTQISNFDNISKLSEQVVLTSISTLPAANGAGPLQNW", "assay": "3H-EMPA radioligand binding assay", "conditions": "3H-EMPA displacement, membranes of HEK293 cells transfected with human Orexin-2 receptor; KI by Cheng-Prussoff; read-out: OX2 pKi ave (converted)", "experimental": "cDNA encoding the human Orexin-2 receptor was transfected into HEK293 cells using the transfection reagent Genejuice (Novagen). Forty-eight hours after transfection, cells were harvested and washed twice with ice cold phosphate-buffered saline. The pellet was resuspended in ice-cold buffer containing 20 mM Tris-HCl, pH 7.4, 1 mM EDTA and homogenised with an Ultraturax for 30 s at maximum speed. After centrifugation at 48,000 g for 30 min at 4° C., the pellet was resuspended and spun again. The final pellet was resuspended and frozen at −80° C. before use. Protein concentration was determined using the BCA protein assay method.\n^3H-EMPA Radioligand Binding Assay\nAt the end of the incubation, membranes were filtered onto a unifilter, a 96-well white microplate with bonded GF/B filter pre-incubated with 0.5% polyethylenimine, with a Tomtec cell harvester and washed 4 times with distilled water. […] Radioactivity on the filter was counted (1 min) on a microbeta counter after addition of 50 µL of scintillation fluid. […] IC50 values were derived from the inhibition curve and the equilibrium dissociation constant (KI) values were calculated using the Cheng-Prussoff equation.", "units": {"Ki": "nM"}}
{"smiles": "COc1ccc(N2C(=O)N(Cc3ccc4c(c3)OCO4)c3ccccc3S2(=O)=O)cc1OC", "note": "[Example 1, 4-(1,3-benzodioxol-5-ylmethyl)-2-(3,4-dimethoxyphenyl)-2H-1,2,4-benzothiadiazin-3(4H)-one 1,1-dioxide]", "Ki": 316}
{"smiles": "COc1ccc(CN2C(=O)N(c3ccc(OC)c(OC)c3)S(=O)(=O)c3ccccc32)cc1F", "note": "[Example 2, 2-(3,4-dimethoxyphenyl)-4-(3-fluoro-4-methoxybenzyl)-2H-1,2,4-benzothiadiazin-3(4H)-one 1,1-dioxide]", "Ki": 141}
{"smiles": "COc1cccc(CN2C(=O)N(c3cc(OC)cc(OC)c3)S(=O)(=O)c3ccccc32)c1", "note": "[Example 3, 2-(3,5-dimethoxyphenyl)-4-(3-methoxybenzyl)-2H-1,2,4-benzothiadiazin-3(4H)-one 1,1-dioxide]", "Ki": 447}
{"smiles": "COc1ccc(N2C(=O)N(Cc3cccc(C#N)c3)c3ccccc3S2(=O)=O)cc1OC", "note": "[Example 4, 3-{[2-(3,4-dimethoxyphenyl)-1,1-dioxido-3-oxo-2,3-dihydro-4H-1,2,4-benzothiadiazin-4-yl]methyl}benzonitrile]", "Ki": 355}
{"smiles": "COc1ccc(N2C(=O)N(Cc3ccccc3)c3ccccc3S2(=O)=O)cc1OC", "note": "[Example 5, 4-benzyl-2-(3,4-dimethoxyphenyl)-2H-1,2,4-benzothiadiazin-3(4H)-one 1,1-dioxide]", "Ki": 89.1}
{"smiles": "COc1cc(OC)cc(N2C(=O)N(Cc3cccc(C)c3)c3ccccc3S2(=O)=O)c1", "note": "[Example 6, 2-(3,5-dimethoxyphenyl)-4-(3-methylbenzyl)-2H-1,2,4-benzothiadiazin-3(4H)-one 1,1-dioxide]", "Ki": 468}
{"smiles": "COc1ccc(N2C(=O)N(Cc3ccc(C)cc3)c3ccccc3S2(=O)=O)cc1OC", "note": "[Example 7, 2-(3,4-dimethoxyphenyl)-4-(4-methylbenzyl)-2H-1,2,4-benzothiadiazin-3(4H)-one 1,1-dioxide]", "Ki": 37.2}
{"smiles": "COc1ccc(N2C(=O)N(Cc3ccc(F)cc3)c3ccccc3S2(=O)=O)cc1OC", "note": "[Example 8, 2-(3,4-dimethoxyphenyl)-4-(4-fluorobenzyl)-2H-1,2,4-benzothiadiazin-3(4H)-one 1,1-dioxide]", "Ki": 56.2}
{"smiles": "CSc1cccc(N2C(=O)N(Cc3cccc(Br)c3)c3ccccc3S2(=O)=O)c1", "note": "[Example 9, 4-(3-bromobenzyl)-2-[3-(methylsulfanyl)phenyl]-2H-1,2,4-benzothiadiazin-3(4H)-one 1,1-dioxide]", "Ki": 35.5}
{"smiles": "COc1cccc(N2C(=O)N(Cc3ccc(OC)c(F)c3)c3ccccc3S2(=O)=O)c1", "note": "[Example 10, 4-(3-fluoro-4-methoxybenzyl)-2-(3-methoxyphenyl)-2H-1,2,4-benzothiadiazin-3(4H)-one 1,1-dioxide]", "Ki": 117}
{"smiles": "CCc1cccc(N2C(=O)N(Cc3ccc(OC)c(F)c3)c3ccccc3S2(=O)=O)c1", "note": "[Example 11, 2-(3-ethylphenyl)-4-(3-fluoro-4-methoxybenzyl)-2H-1,2,4-benzothiadiazin-3(4H)-one 1,1-dioxide]", "Ki": 47.9}
{"smiles": "Cc1ccc(N2C(=O)N(Cc3cccc(F)c3)c3ccccc3S2(=O)=O)cc1Cl", "note": "[Example 12, 4-(3-fluorobenzyl)-2-(3-chloro-4-methylphenyl)-2H-1,2,4-benzothiadiazin-3(4H)-one 1,1-dioxide]", "Ki": 34.7}
{"smiles": "COc1cc(OC)cc(N2C(=O)N(Cc3ccccc3F)c3ccccc3S2(=O)=O)c1", "note": "[Example 13, 2-(3,5-dimethoxyphenyl)-4-(2-fluorobenzyl)-2H-1,2,4-benzothiadiazin-3(4H)-one 1,1-dioxide]", "Ki": 26.9}
{"smiles": "COc1cccc(N2C(=O)N(Cc3ccccc3F)c3ccccc3S2(=O)=O)c1", "note": "[Example 14, 4-(2-fluorobenzyl)-2-(3-methoxyphenyl)-2H-1,2,4-benzothiadiazin-3(4H)-one 1,1-dioxide]", "Ki": 200}
{"smiles": "COc1cc(OC)cc(N2C(=O)N(Cc3ccccc3C)c3ccccc3S2(=O)=O)c1", "note": "[Example 15, 2-(3,5-dimethoxyphenyl)-4-(2-methylbenzyl)-2H-1,2,4-benzothiadiazin-3(4H)-one 1,1-dioxide]", "Ki": 29.5}
{"smiles": "COc1cc(OC)cc(N2C(=O)N(Cc3ccccc3Cl)c3ccccc3S2(=O)=O)c1", "note": "[Example 16, 4-(2-chlorobenzyl)-2-(3,5-dimethoxyphenyl)-2H-1,2,4-benzothiadiazin-3(4H)-one 1,1-dioxide]", "Ki": 31.6}
{"smiles": "COC(=O)c1ccc(OC)c(CN2C(=O)N(c3cc(OC)cc(OC)c3)S(=O)(=O)c3ccccc32)c1", "note": "[Example 17, methyl 3-{[2-(3,5-dimethoxyphenyl)-1,1-dioxido-3-oxo-2,3-dihydro-4H-1,2,4-benzothiadiazin-4-yl]methyl}-4-methoxybenzoate]", "Ki": 13.5}
{"smiles": "COc1ccc(N2C(=O)N(Cc3ccccc3C)c3ccccc3S2(=O)=O)cc1OC", "note": "[Example 18, 2-(3,4-dimethoxyphenyl)-4-(2-methylbenzyl)-2H-1,2,4-benzothiadiazin-3(4H)-one 1,1-dioxide]", "Ki": 14.8}
{"smiles": "COc1ccc(N2C(=O)N(Cc3ccccc3Cl)c3ccccc3S2(=O)=O)cc1OC", "note": "[Example 19, 4-(2-chlorobenzyl)-2-(3,4-dimethoxyphenyl)-2H-1,2,4-benzothiadiazin-3(4H)-one 1,1-dioxide]", "Ki": 18.6}
{"smiles": "COc1ccc(N2C(=O)N(Cc3c(F)cccc3Cl)c3ccccc3S2(=O)=O)cc1OC", "note": "[Example 20, 4-(2-chloro-6-fluorobenzyl)-2-(3,4-dimethoxyphenyl)-2H-1,2,4-benzothiadiazin-3(4H)-one 1,1-dioxide]", "Ki": 0.741}
{"smiles": "COc1ccc(N2C(=O)N(Cc3ccc(F)cc3Cl)c3ccccc3S2(=O)=O)cc1OC", "note": "[Example 21, 4-(2-chloro-4-fluorobenzyl)-2-(3,4-dimethoxyphenyl)-2H-1,2,4-benzothiadiazin-3(4H)-one 1,1-dioxide]", "Ki": 23.4}
{"smiles": "CSc1cccc(N2C(=O)N(Cc3ccccc3Cl)c3ccccc3S2(=O)=O)c1", "note": "[Example 22, 4-(2-chlorobenzyl)-2-[3-(methylsulfanyl)phenyl]-2H-1,2,4-benzothiadiazin-3(4H)-one 1,1-dioxide]", "Ki": 23.4}
{"smiles": "CSc1cccc(N2C(=O)N(Cc3ccccc3F)c3ccccc3S2(=O)=O)c1", "note": "[Example 23, 4-(2-fluorobenzyl)-2-[3-(methylsulfanyl)phenyl]-2H-1,2,4-benzothiadiazin-3(4H)-one 1,1-dioxide]", "Ki": 20.9}
{"smiles": "O=C1N(Cc2c(F)cccc2Cl)c2ccccc2S(=O)(=O)N1c1ccc(Cl)cc1", "note": "[Example 24, 4-(2-chloro-6-fluorobenzyl)-2-(4-chlorophenyl)-2H-1,2,4-benzothiadiazin-3(4H)-one 1,1-dioxide]", "Ki": 7.08}
{"smiles": "Cc1ccc(N2C(=O)N(Cc3c(F)cccc3Cl)c3ccccc3S2(=O)=O)cc1Cl", "note": "[Example 25, 4-(2-chloro-6-fluorobenzyl)-2-(3-chloro-4-methylphenyl)-2H-1,2,4-benzothiadiazin-3(4H)-one 1,1-dioxide]", "Ki": 2.51}
{"smiles": "O=C1N(Cc2c(F)cccc2Cl)c2ccccc2S(=O)(=O)N1c1ccccc1", "note": "[Example 26, 4-(2-chloro-6-fluorobenzyl)-2-phenyl-2H-1,2,4-benzothiadiazin-3(4H)-one 1,1-dioxide]", "Ki": 79.4}
{"smiles": "Cc1cc(C)cc(N2C(=O)N(Cc3c(F)cccc3Cl)c3ccccc3S2(=O)=O)c1", "note": "[Example 27, 4-(2-chloro-6-fluorobenzyl)-2-(3,5-dimethylphenyl)-2H-1,2,4-benzothiadiazin-3(4H)-one 1,1-dioxide]", "Ki": 0.631}
{"smiles": "Cc1ccc(N2C(=O)N(Cc3c(F)cccc3Cl)c3ccccc3S2(=O)=O)cc1", "note": "[Example 28, 4-(2-chloro-6-fluorobenzyl)-2-(4-methylphenyl)-2H-1,2,4-benzothiadiazin-3(4H)-one 1,1-dioxide]", "Ki": 5.62}
{"smiles": "CCOc1ccc(N2C(=O)N(Cc3c(F)cccc3Cl)c3ccccc3S2(=O)=O)cc1", "note": "[Example 29, 4-(2-chloro-6-fluorobenzyl)-2-(4-ethoxyphenyl)-2H-1,2,4-benzothiadiazin-3(4H)-one 1,1-dioxide]", "Ki": 31.6}
{"smiles": "CC(=O)c1ccc(N2C(=O)N(Cc3c(F)cccc3Cl)c3ccccc3S2(=O)=O)cc1", "note": "[Example 30, 2-(4-acetylphenyl)-4-(2-chloro-6-fluorobenzyl)-2H-1,2,4-benzothiadiazin-3(4H)-one 1,1-dioxide]", "Ki": 20}
{"smiles": "Cc1cccc(N2C(=O)N(Cc3c(F)cccc3Cl)c3ccccc3S2(=O)=O)c1", "note": "[Example 31, 4-(2-chloro-6-fluorobenzyl)-2-(3-methylphenyl)-2H-1,2,4-benzothiadiazin-3(4H)-one 1,1-dioxide]", "Ki": 10.5}
{"smiles": "Cc1ccc(C)c(N2C(=O)N(Cc3c(F)cccc3Cl)c3ccccc3S2(=O)=O)c1", "note": "[Example 32, 4-(2-chloro-6-fluorobenzyl)-2-(2,5-dimethylphenyl)-2H-1,2,4-benzothiadiazin-3(4H)-one 1,1-dioxide]", "Ki": 28.2}
{"smiles": "CCc1ccccc1N1C(=O)N(Cc2c(F)cccc2Cl)c2ccccc2S1(=O)=O", "note": "[Example 33, 4-(2-chloro-6-fluorobenzyl)-2-(2-ethylphenyl)-2H-1,2,4-benzothiadiazin-3(4H)-one 1,1-dioxide]", "Ki": 28.2}
